From patent publication US10525106B2, “Angiopoietin-based interventions for treating cerebral malaria” (Regeneron Pharmaceuticals, Inc., priority 2013, dated 2020)

Columns and labels:
[1] = tested on: Plasmodium berghei ANKA (PbA)-induced experimental cerebral malaria; assay: Survival of mice infected with PbA (Kaplan Meier, log rank test); assay type: in vivo; conditions: C57Bl/6 mice, 10 mg/kg artesunate Day 5 sc, alone (Example 4)
From the text: (§1) Cryopreserved Plasmodium berghei ANKA (PbA; MR4, Manassas, Va.) was passaged through naïve C57Bl/6 mice. For the experiment, infection was initiated in C57Bl/6 and BALB/c mice by intraperitoneal (ip) injection of 1×10^6 freshly-isolated parasitized erythrocytes (PE) obtained from donor passage mice. Parasitemia was monitored by thin-blood smear stained with modified Geimsa stain (Protocol Hema3 Stain Set, Sigma, Oakville, ON) by counting at least 1500 erythrocytes. The infected mice were monitored for survival, neurological impairment, vascular leakage, parasite burden, and levels of angiogenic factors and markers of endothelial activation.
Post-infection survival of mice was plotted as Kaplan Meier curves using a log rank test for comparison. Quantitative assessment of ECM-associated neurological impairment (impaired coordination and motor performance) was performed daily using the 10 parameter Rapid Murine Coma and Behavioral Score (RMCBS), as previously described by Carroll R W, et al. 2010 in PLoS ONE 5: e13124. […] Total scores for each mouse were calculated and provided as a percentage of the total possible score. […]
Statistical analysis was performed using GraphPad Prism version 4.00 (San Diego, Calif.). Post-infection survival of mice was plotted as Kaplan Meier curves and assessed using log-rank test. […]

[2] = tested on: Plasmodium berghei ANKA (PbA); assay: Parasitemia by thin-blood smear; assay type: in vivo; conditions: C57Bl/6 mice, 10 mg/kg artesunate Day 5 sc (Example 4)
From the text: as §1

Q: What does the source list for `C[C@H]1[C@H](OC(=O)CCC(=O)O)O[C@@H]2O[C@@]3(C)CC[C@H]4[C@H](C)CC[C@@H]1[C@@]24OO3` [artesunate, reference compound]?
A: survival by Day 8 post infection [1]: less than 60%; treated mice that died of ECM [1]: 41.7%; parasitemia (parasite burden diminished to pre-ECM levels) [2]: < 2%
